“Also recorded” adds a separate entry of the source. Where a name gives a salt, the structure may show the parent alone. Read-outs that look alike come from different tables or passages of the source.
Columns and labels:
[1] = cited from earlier work
E. coli = test system: E. coli; design: method as in earlier work; conditions: cited from earlier work
S. aureus = test system: S. aureus; design: method as in earlier work; conditions: cited from earlier work
[2] = Octanol/water partition coefficient, shake-flask method; format: physicochemical; conditions: for logKO/W ± SD: octanol/water, shake-flask, mean ± standard deviation; for relative hydrophobicity from log KO/W: ranking within the [Cip]-based or [Mox]-based GUMBOS
Procedure: Following synthesis and structural characterization of FQ-based GUMBOS, octanol/water partition coefficient (Ko/w) values were obtained through a shake-flask method with minor modifications. Initially, water and 1-octanol were saturated by agitation for 24 h at room temperature. GUMBOS were solubilized in 5 mL of water-saturated octanol (Ci), to which an equivalent volume of octanol-saturated water was added. This solution subjected to 24 h of agitation and the absorbance of the upper layer was measured at a wavelength of 280 nm. Sample concentration in octanol (Co) was determined through a calibration curve, which was created using six solutions of different concentrations (4–30 μmol·L^−1) of GUMBOS in 1-octanol. Later, GUMBOS concentration in water (Cw) were obtained by the following equation Ci − C0 = Cw. Octanol/water partition coefficient (Ko/w) values were then calculated using Ko/w = Co/Cw. Data were representative of three replicates executed for each of the GUMBOS.

[3] = Thermogravimetric analysis (TGA), thermal stability; format: physicochemical; conditions: for Tonset / Tpeak / Tstart: 10 °C min^−1, N2 atmosphere; for Residue at 500 °C: mass residue remaining at 500 °C; for Tpeak: temperature at highest degradation rate; for Tstart: temperature where weight loss starts
Procedure: Thermogravimetric analysis (TGA) was executed using a Hi-Res modulated TGA 2950 thermogravimetric analyzer (TA Instruments, New Castle, DE, USA) and curves were obtained for all GUMBOS. Approximately 1-3 mg of GUMBOS was placed in a platinum pan and heated from 25 °C to 575 °C at a slow heating rate of 10 °C min^-1. Some characteristic parameters were extrapolated. For DSC and TGA, onset temperatures (Tonset) were determined as the temperature value matching the intersection point of the extrapolated initial baseline and the tangent or line through the linear section of the leading edge of the Tpeak point where the Tpeak was the temperature value at the highest degradation rate. For TGA, additional data were collected such as the temperature value where weight loss starts ([…]), and the percentage of mass residue remaining at 500 °C which allows evaluation of the short-term stability. All these parameters were extrapolated using the software NETZSCH Proteus® version 6.1081 (Netzsch-Gerätebau GmbH, Selb, Germany) for DSC analysis and Universal Analysis 2000 version 4.5A (TA Instruments-Waters LLC, New Castle, DE, USA) for TGA analysis.

[4] = test system: Staphylococcus aureus subsp. aureus Rosenbach ATCC 25923; assay: Antibacterial susceptibility testing, broth microdilution, bacterial growth by absorbance at 630 nm; format: cell-based
Procedure: To evaluate the antimicrobial profile, a study was performed using the broth microdilution standard method with minor modifications using DMSO as solvent. Standard laboratory strains of Gram-positive Staphylococcus aureus subsp. aureus Rosenbach ATCC 25923 and Gram-negative Escherichia coli O157:H7 were studied. TSB was used as the culture medium for bacteria and samples with bacteria in media were considered positive controls.
Antibacterial activity of GUMBOS was evaluated by comparing it with negative controls, as well as with the antibacterial activity of the parent compounds, [Cip][HCl] and [Mox][HCl]. […] These values are determined through laboratory testing and can vary depending on the testing methodology and conditions, thus the range increase in this study to 25 mg·L^−1. Stock solutions were prepared using water for water-soluble compounds while non-water soluble compounds were reconstituted using a deionized water solution containing 5% DMSO [96]. Following that, the compounds were diluted using fresh tryptic soy broth (TSB) to achieve desired concentrations. Initially, agar media was used to grow additional bacteria to correlate absorbance readings to microbial counts. Then, a solution of 0.1 mL of S. aureus added to 10 mL of TSB was incubated at 37 °C for 24 h and repeated for three more days until enough bacteria was obtained. After centrifugation and washing steps with PBS (1×) solution until obtaining a homogenized pellet, the inoculum was then diluted to 0.06 absorbance at 630 nm or 0.5 McFarland [97]. After compounds were diluted in TSB, 100 μL of samples with 100 μL of S. aureus inoculum were then transferred to a 96-well flat bottom microtitre plate (TPP, Switzerland) which was sealed and left in incubation at 37 °C for 24 h. Absorbance was read at 630 nm with a BioTek universal microplate reader (Agilent Technologies, VT, USA) to determine the turbidity in the wells [97, 98]. Three wells were prepared per sample. To ensure the viability and growth of bacteria in the culture media, negative controls were conducted along with a positive culture using the media containing only the bacteria. [Cip][HCl] served as the reference antibacterial agent.

[5] = test system: L929 mouse fibroblast cells; assay: Cytotoxicity evaluation, resazurin reduction assay; format: cell-based; conditions: 24 h exposure
Procedure: To assess the impact of GUMBOS on cell viability, the resazurin assay was employed using L929 mouse fibroblast cells as described previously by Page et al.. The L929 cells were cultured at 37 °C in a 5% CO2 atmosphere, utilizing DMEM supplemented with 10% FBS and 1% streptomycin/gentamycin. Once the cell culture reached 70–80% confluence, it was detached using a 0.25% (w/v) trypsin-ethylenediaminetetraacetic acid (EDTA) solution. The cells were then subjected to centrifugation with the Heraeus Multifuge X1R centrifuge (Thermo Fisher Scientific; Waltham, MA, USA) and resuspended in fresh medium. Viable cell counts were obtained through a Neubauer chamber (Improved Neubauer Bright-Line, Boeco; Hamburg, Germany).
For experiments, L929 cells were seeded at a density of 5 × 10^4 cells per well in 96-well microplates and supplemented with DMEM medium. Plates were placed in a humidified incubator at 37 °C with 5% CO2 for 24 h to allow cell attachment and growth. Subsequently, the culture medium was replaced with different concentrations of each sample being tested. After 24h incubation, the medium was replaced with fresh culture medium containing 10% resazurin. Cells were then incubated for 4 h in the dark at 37 °C with 5% CO2 to allow resazurin conversion. Fluorescence of resorufin was measured using a plate reader (Synergy HT plate reader-Biotek Instruments, Winooski, VT, USA) with excitation at 560 nm and emission at 590 nm. Negative control wells contained only culture medium, while positive control wells contained the cation precursor, the active pharmaceutical ingredient. All experiments were conducted in triplicate.

[6] = TGA, parent compound; cited from earlier work
E. coli O157:H7 = test system: E. coli O157:H7; design: method as in PMID 23447139; conditions: same E. coli O157:H7 strain; cited from earlier work
[7] = 0.25 mg·L^−1, 24 h exposure, Figure 4a
[8] = 25 mg·L^−1, 24 h exposure, Figure 4b
[9] = 50 mg·L^−1 (highest concentration)

## O=C(O)c1cn(C2CC2)c2cc(N3CCNCC3)c(F)cc2c1=O [[Cip], ciprofloxacin]
[1]
  logKO/W: −0.13
E. coli
  epidemiologic cutoff value (ECOFF): 0.06 mg·L^−1
S. aureus
  epidemiologic cutoff value (ECOFF): 2 mg·L^−1

## O=C(O)c1cn(C2CC2)c2cc(N3CCNCC3)c(F)cc2c1=O.O=S(=O)(NS(=O)(=O)C(F)(F)C(F)(F)F)C(F)(F)C(F)(F)F [[Cip][BETI]]
[2]
  logKO/W ± SD: −0.314 ± 0.094
[3]
  Tonset: 284.61 °C
  Residue at 500 °C: 35.43%
  Tpeak: 294.04 °C
  Tstart: 266.25 °C

## CCCCC(CC)COC(=O)CC(C(=O)OCC(CC)CCCC)S(=O)(=O)O.O=C(O)c1cn(C2CC2)c2cc(N3CCNCC3)c(F)cc2c1=O (centres unmarked) [[Cip][Doc]]
[2]
  logKO/W ± SD: 0.162 ± 0.015
  relative hydrophobicity from log KO/W: most hydrophobic
[3]
  Tonset: 286.49 °C
  Residue at 500 °C: 24.26%
  Tpeak: 286.64 °C
  Tstart: 252.18 °C

## C[C@H](CCC(=O)O)[C@H]1CC[C@H]2[C@@H]3CC[C@@H]4C[C@H](O)CC[C@]4(C)[C@H]3C[C@H](O)[C@]12C.O=C(O)c1cn(C2CC2)c2cc(N3CCNCC3)c(F)cc2c1=O [[Cip][Dxc]]
[2]
  logKO/W ± SD: −1.110 ± 0.018
  relative hydrophobicity from log KO/W: most hydrophilic
[3]
  Tonset: 326.23 °C
  Residue at 500 °C: 19.75%
  Tpeak: 332.30 °C
  Tstart: 211.93 °C
[4]; [7]
  antibacterial performance (bacterial growth) against S. aureus: least antimicrobial agent of all tested samples
[4]; [8]
  antibacterial performance (bacterial growth) against S. aureus: significant differences from their corresponding precursors; also recorded: least antimicrobial agent of all tested samples
[5]; [9]
  cytotoxicity to L929 cells (cell viability): some levels of cell toxicity; also recorded: slight toxicity

## O=C(O)c1cn(C2CC2)c2cc(N3CCNCC3)c(F)cc2c1=O [[Cip][HCl], Ciprofloxacin hydrochloride monohydrate]
[6]
  Tonset: 300 °C
  Tpeak: 318 °C
  Tstart: 150 °C

## O=C(O)c1cn(C2CC2)c2cc(N3CCNCC3)c(F)cc2c1=O.O=S(=O)(NS(=O)(=O)C(F)(F)F)C(F)(F)F [[Cip][NTF2]]
[2]
  logKO/W ± SD: 0.145 ± 0.075
[3]
  Tonset: 287.79 °C
  Residue at 500 °C: 39.88%
  Tpeak: 295.18 °C
  Tstart: 263.57 °C
[4]; [7]
  antibacterial performance (bacterial growth) against S. aureus: activities closer to their precursor

## O=C(O)c1cn(C2CC2)c2cc(N3CC[NH2+]CC3)c(F)cc2c1=O.c1ccc([B-](c2ccccc2)(c2ccccc2)c2ccccc2)cc1 [[Cip][TPB]]
[2]
  logKO/W ± SD: −0.464 ± 0.006
[3]
  Tonset: 117.85 °C
  Residue at 500 °C: 36.93%
  Tpeak: 122.95 °C
  Tstart: 98.94 °C
[5]; [9]
  cytotoxicity to L929 cells (cell viability): some levels of cell toxicity

## COc1c(N2C[C@@H]3CCCN[C@@H]3C2)c(F)cc2c(=O)c(C(=O)O)cn(C3CC3)c12.O=S(=O)(NS(=O)(=O)C(F)(F)C(F)(F)F)C(F)(F)C(F)(F)F [[Mox][BETI]]
[3]
  Tonset: 307.46 °C
  Residue at 500 °C: 32.31%
  Tpeak: 322.97 °C
  Tstart: 266.98 °C

## CCCCC(CC)COC(=O)CC(C(=O)OCC(CC)CCCC)S(=O)(=O)O.COc1c(N2C[C@@H]3CCCN[C@@H]3C2)c(F)cc2c(=O)c(C(=O)O)cn(C3CC3)c12 [[Mox][Doc]]
[3]
  Tonset: 271.04 °C
  Residue at 500 °C: 33.55%
  Tpeak: 275.90 °C
  Tstart: 249.91 °C
[4]; [7]
  antibacterial performance (bacterial growth) against S. aureus: activities closer to their precursor
[4]; [8]
  antibacterial performance (bacterial growth) against S. aureus: significant differences from their corresponding precursors

## COc1c(N2C[C@@H]3CCCN[C@@H]3C2)c(F)cc2c(=O)c(C(=O)O)cn(C3CC3)c12.C[C@H](CCC(=O)O)[C@H]1CC[C@H]2[C@@H]3CC[C@@H]4C[C@H](O)CC[C@]4(C)[C@H]3C[C@H](O)[C@]12C [[Mox][Dxc]]
[3]
  Tonset: 275.22 °C
  Residue at 500 °C: 15.60%
  Tpeak: 284.97 °C
  Tstart: 208.92 °C

## COc1c(N2C[C@@H]3CCCN[C@@H]3C2)c(F)cc2c(=O)c(C(=O)O)cn(C3CC3)c12 [[Mox][HCl], moxifloxacin hydrochloride monohydrate]
[6]
  Tonset: 240 °C
  Tpeak: 260 °C
  Tstart: 220 °C

## COc1c(N2C[C@@H]3CCCN[C@@H]3C2)c(F)cc2c(=O)c(C(=O)O)cn(C3CC3)c12.O=S(=O)(NS(=O)(=O)C(F)(F)F)C(F)(F)F [[Mox][NTF2]]
[3]
  Tonset: 319.64 °C
  Residue at 500 °C: 24.57%
  Tpeak: 327.51 °C
  Tstart: 297.72 °C
[5]; [9]
  cytotoxicity to L929 cells (cell viability): slight toxicity

## COc1c(N2C[C@@H]3CCC[NH2+][C@@H]3C2)c(F)cc2c(=O)c(C(=O)O)cn(C3CC3)c12.c1ccc([B-](c2ccccc2)(c2ccccc2)c2ccccc2)cc1 [[Mox][TPB]]
[3]
  Tonset: 176.37 °C
  Residue at 500 °C: 42.13%
  Tpeak: 177.21 °C
  Tstart: 144.02 °C
[4]; [7]
  antibacterial performance (bacterial growth) against S. aureus: activities closer to their precursor
[4]; [8]
  antibacterial performance (bacterial growth) against S. aureus: significant differences from their corresponding precursors

## c1ccc([B-](c2ccccc2)(c2ccccc2)c2ccccc2)cc1 [[Na][TPB], sodium tetraphenylborate, reference compound]
[5]; two highest concentrations (25 and 50 mg·L^−1)
  cytotoxicity to L929 cells (cell viability): cytotoxic

## CC1(C)SC2C(NC(=O)C(N)c3ccccc3)C(=O)N2C1C(=O)O.CC1(C)SC2C(NC(=O)C(N)c3ccccc3)C(=O)N2C1C(=O)O.N=C(NCCCCCCNC(=N)NC(=N)Nc1ccc(Cl)cc1)NC(=N)Nc1ccc(Cl)cc1 [chlorhexidine di-ampicillin]
E. coli O157:H7
  concentrations at which growth was inhibited: 0.06 to 0.12 mg/L

Reference: paper PMC10650486, “Fluoroquinolone-Based Organic Salts (GUMBOS) with Antibacterial Potential” (International Journal of Molecular Sciences, 2023)
